Read-outs that look alike come from different tables or passages of the source.
Legend:
[1] = tested on: TNFα production in LPS-stimulated human monocytes; assay: Cot Monocyte TNFα Cell Based Assay; details: read-out: EC50 TNF
How it was run: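 Human monocytes (5,000 cells/well) pretreated with compound for 1 hour at 37° C (0.5% DMSO), then stimulated with 50 pg/ml LPS for 4 hours. Total TNFα measured by TR-FRET after overnight antibody incubation at room temp, expressed as percent of control between unstimulated and stimulated cells.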

[2] = molecular target: T1, human Cot catalytic domain (30-397 amino acids) (Homo sapiens, UniProt P41279); assay: High Throughput Cot Biochemical Assay (KinEASE TR-FRET); details: read-out: IC50 HTRF
T1 construct: Purified recombinant human Cot catalytic domain (30-397 amino acids) was purchased from Cama Biosciences; purchased Cama Biosciences (so in the source)
How it was run: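 Recombinant human Cot catalytic domain (aa 30-397), 5 nM, with 1 μM STK3 peptide and 400 μM ATP in MOPS pH 7.0 buffer with MgOAc, DTT, BSA, NP-40, glycerol, 0.1% DMSO. Phosphorylated XL665-peptide detected by Eu-[…] antibody TR-FRET.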

[3] = Cot KinEASE TR-FRET (HTRF) biochemical assay, 400 μM ATP
[4] = Homo sapiens, Monocyte, TNFα in LPS-stimulated human monocytes
[5] = Cot biochemical HTRF (KinEASE TR-FRET) assay
[6] = Homo sapiens, Monocyte, LPS-stimulated human monocytes, TNFα TR-FRET
[7] = Cot KinEASE TR-FRET, 400 μM ATP

T1 sequence (P41279 30-397): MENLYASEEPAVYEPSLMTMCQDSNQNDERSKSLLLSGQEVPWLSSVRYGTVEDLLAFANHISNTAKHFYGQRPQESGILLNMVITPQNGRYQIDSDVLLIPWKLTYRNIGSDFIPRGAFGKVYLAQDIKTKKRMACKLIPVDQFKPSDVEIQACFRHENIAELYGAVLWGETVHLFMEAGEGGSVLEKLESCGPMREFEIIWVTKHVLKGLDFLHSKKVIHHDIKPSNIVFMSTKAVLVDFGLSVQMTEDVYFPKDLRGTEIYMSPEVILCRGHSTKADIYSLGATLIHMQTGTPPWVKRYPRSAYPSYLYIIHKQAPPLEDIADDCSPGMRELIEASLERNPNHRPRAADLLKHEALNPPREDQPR

SMILES	IC50 [2, 3] [nM]	EC50 [1, 4] [nM]	IC50 [2, 5] [nM]	other results
[2H]C(Nc1cc(Cl)c2ncc(C#N)c(NC(CCC#N)c3ccccc3)c2c1)(c1cn(C2CC2)nn1)c1ccccc1Cl (stereo not drawn) [Example 88, 8-chloro-6-(((2-chlorophenyl) (1-cyclopropyl-1H-1,2,3-triazol-4-yl)methyl-d)amino)-4-((3-cyano-1-phenylpropyl)amino) quinoline-3-carbonitrile]	190			EC50 ([1]; TNFα in LPS-stimulated human monocytes): > 1000 nM
[2H][C@](Nc1cc(Cl)c2ncc(C#N)c(N[C@H]3CCC[C@@H](O)C3)c2c1)(c1ccc(F)cc1)c1cn(C2CC2)nn1 [Example 315, 8-chloro-6-(((S)-(1-cyclopropyl-1H-1,2,3-triazol-4-yl)(4-fluorophenyl)methyl-d)amino)-4-(((1S,3R)-3-hydroxycyclohexyl)amino) quinoline-3-carbonitrile]	134	1010		
[2H][C@](Nc1cc(Cl)c2ncc(C#N)c(NNC(C)(C)C)c2c1)(c1ccc(F)cc1)c1cn(C2CC2)nn1 [Example 310, (S)-4-(2-(tert-butyl)hydrazinyl)-8-chloro-6-(((1-cyclopropyl-1H-1,2,3-triazol-4-yl)(4-fluorophenyl)methyl-d)amino)quinoline-3-carbonitrile]	> 10000	2360		
N#Cc1cnc2c(Cl)cc(N[C@@H](c3ccc(F)cc3)c3cn(C4CC4)nn3)cc2c1NC(CN1CCOCC1)c1ccccc1 (stereo partly drawn) [Example 322, 8-chloro-6-(((S)-(1-cyclopropyl-1H-1,2,3-triazol-4-yl)(4-fluorophenyl)methyl)amino)-4-((2-morpholino-1-phenylethyl)amino)quinoline-3-carbonitrile]	140	959		
Cc1c(-c2cc[nH]n2)cccc1[C@H](Nc1cc(C#N)c2ncc(C#N)c(NCC(C)(C)C)c2c1)c1cn(C2(C(F)(F)F)CC2)nn1 [Example 1132, (S)-6-(((2-methyl-3-(1H-pyrazol-3-yl)phenyl)(1-(1-(trifluoromethyl)cyclopropyl)-1H-1,2,3-triazol-4-yl)methyl)amino)-4-(neopentylamino)quinoline-3,8-dicarbonitrile]				EC50 [1, 6]: 175 nM; IC50 [2, 7]: 8 nM
[2H][C@](Nc1cc(Br)c2ncc(C#N)c(NCC(C)(C)C)c2c1)(c1ccc(F)cc1)c1cn(CC(O)CNC(C)(C)C)nn1 (stereo partly drawn) [Example 988, 8-bromo-6-(((1S)-(1-(3-(tert-butylamino)-2-hydroxypropyl)-1H-1,2,3-triazol-4-yl)(4-fluorophenyl)methyl-d)amino)-4-(neopentylamino)quinoline-3-carbonitrile]				EC50 [1, 6]: 334 nM; IC50 [2, 7]: 14 nM
CC(C)n1cc([C@@H](Nc2cc(Cl)c3ncc(C#N)c(Nc4ccc(F)c(Cl)c4)c3c2)c2cccc(S(=O)(=O)N(C)C)c2)nn1 [Example 383, (S)-3-(((8-chloro-4-((3-chloro-4-fluorophenyl)amino)-3-cyanoquinolin-6-yl)amino)(1-isopropyl-1H-1,2,3-triazol-4-yl)methyl)-N,N-dimethylbenzenesulfonamide]	11	148		
[2H][C@](Nc1cc(Cl)c2ncc(C#N)c(NC3CCOCC3(C)C)c2c1)(c1ccc(F)cc1)c1cn(C2CC2)nn1 (stereo partly drawn) [Example 190, 8-chloro-6-(((S)-(1-cyclopropyl-1H-1,2,3-triazol-4-yl)(4-fluorophenyl)methyl-d)amino)-4-((3,3-dimethyltetrahydro-2H-pyran-4-yl)amino)quinoline-3-carbonitrile]	3	55		
CC(C)(C)CNc1c(C#N)cnc2c(C#N)cc(N[C@@H](c3cccc(NS(C)(=O)=O)c3)c3cn(C4CC4)nn3)cc12 [Example 68, (S)-N-(3-((1-cyclopropyl-1H-1,2,3-triazol-4-yl)((3,8-dicyano-4-(neopentylamino)quinolin-6-yl)amino)methyl)phenyl)methanesulfonamide]	3	> 1000		
[2H][C@](Nc1cc(Cl)c2ncc(C#N)c(N[C@@H]3CCCC[C@H]3CO)c2c1)(c1ccc(F)cc1)c1cn(C2CC2)nn1 [Example 235, 8-chloro-6-(((S)-(1-cyclopropyl-1H-1,2,3-triazol-4-yl)(4-fluorophenyl)methyl-d)amino)-4-(((1R,2R)-2-(hydroxymethyl)cyclohexyl)amino) quinoline-3-carbonitrile]	605	≥ 10000		
N#CCC[C@@H](Nc1c(C#N)cnc2c(Cl)cc(N[C@H](c3cn(CC#N)nn3)c3ccccc3Cl)cc12)c1ccccc1 [Example 66, 8-chloro-6-(((S)-(2-chlorophenyl)(1-(cyanomethyl)-1H-1,2,3-triazol-4-yl)methyl)amino)-4-(((R)-3-cyano-1-phenylpropyl)amino) quinoline-3-carbonitrile]	5	96		

The next lines start with results.

IC50 [2, 3] [nM]	EC50 [1, 4] [nM]	IC50 [2, 5] [nM]	SMILES	other results
	1110	123	N#Cc1cnc2c(Cl)cc(N[C@@H](c3ccc(Cl)cc3)c3c[nH]nn3)cc2c1Nc1ccc(O)c(Cl)c1 [Example 614, (S)-8-chloro-4-((3-chloro-4-hydroxyphenyl)amino)-6-(((4-chlorophenyl)(1H-1,2,3-triazol-4-yl)methyl)amino)quinoline-3-carbonitrile]	
	163	3	CC(C)(C)N1CCC(n2cc([C@@H](Nc3cc(Cl)c4ncc(C#N)c(Nc5ccc(F)c(Cl)c5)c4c3)c3cccc(-c4nccs4)c3)nn2)CC1 [Example 632, (S)-6-(((1-(1-(tert-butyl)piperidin-4-yl)-1H-1,2,3-triazol-4-yl)(3-(thiazol-2-yl)phenyl)methyl)amino)-8-chloro-4-((3-chloro-4-fluorophenyl)amino)quinoline-3-carbonitrile]	
	135	5	CC(C)(C)N1CCC(n2cc([C@@H](Nc3cc(Cl)c4ncc(C#N)c(Nc5ccc(F)c(Cl)c5)c4c3)c3cccc(N4CCC4=O)c3)nn2)CC1 [Example 552, (S)-6-(((1-(1-(tert-butyl)piperidin-4-yl)-1H-1,2,3-triazol-4-yl)(3-(2-oxoazetidin-1-yl)phenyl)methyl)amino)-8-chloro-4-((3-chloro-4-fluorophenyl)amino)quinoline-3-carbonitrile]	
	1720	1	CC(C)(C)N1CCC(n2cc([C@@H](Nc3cc(Cl)c4ncc(C#N)c(Nc5ccc(F)c(Cl)c5)c4c3)c3cccc(C(=O)N4CC(O)C4)c3)nn2)CC1 [Example 594, (S)-6-(((1-(1-(tert-butyl)piperidin-4-yl)-1H-1,2,3-triazol-4-yl)(3-(3-hydroxyazetidine-1-carbonyl)phenyl)methyl)amino)-8-chloro-4-((3-chloro-4-fluorophenyl)amino)quinoline-3-carbonitrile]	
	721	7	C[C@@H](Nc1c(C#N)cnc2c(Cl)cc(N[C@@H](c3ccccc3)c3cn(C4CCN(C(C)(C)C)CC4)nn3)cc12)c1ccccc1 [Example 569, 6-(((S)-(1-(1-(tert-butyl)piperidin-4-yl)-1H-1,2,3-triazol-4-yl)(phenyl)methyl)amino)-8-chloro-4-(((R)-1-phenylethyl)amino)quinoline-3-carbonitrile]	
	1220	18	N#Cc1cnc2c(Cl)cc(N[C@@H](c3ccc(F)cc3)c3cn(CCF)nn3)cc2c1Nc1cnc(F)c(F)c1 [Example 493, (S)-8-chloro-4-((5,6-difluoropyridin-3-yl)amino)-6-(((1-(2-fluoroethyl)-1H-1,2,3-triazol-4-yl)(4-fluorophenyl)methyl)amino) quinoline-3-carbonitrile]	
	6650	243	Cn1nccc1CNc1c(C#N)cnc2c(Cl)cc(N[C@@H](c3ccccc3)c3cn(C4CCN(C(C)(C)C)CC4)nn3)cc12 [Example 477, (S)-6-(((1-(1-(tert-butyl)piperidin-4-yl)-1H-1,2,3-triazol-4-yl)(phenyl)methyl)amino)-8-chloro-4-(((1-methyl-1H-pyrazol-5-yl)methyl)amino)quinoline-3-carbonitrile]	
	161	42	N#Cc1cnc2c(Cl)cc(N[C@@H](c3ccccc3)c3cn(C4C5CN(C6COC6)CC54)nn3)cc2c1Nc1ccc(F)c(Cl)c1 (stereo partly drawn) [Example 574, 8-chloro-4-((3-chloro-4-fluorophenyl)amino)-6-(((1S)-(1-(3-(oxetan-3-yl)-3-azabicyclo[3.1.0]hexan-6-yl)-1H-1,2,3-triazol-4-yl)(phenyl)methyl)amino) quinoline-3-carbonitrile]	
	5130	135	N#Cc1cnc2c(Cl)cc(N[C@@H](c3ccc(F)cc3)c3c[nH]nn3)cc2c1NC1CCCC(O)C1 (stereo partly drawn) [Example 438, 8-chloro-6-(((S)-(4-fluorophenyl)(1H-1,2,3-triazol-4-yl)methyl)amino)-4-((3-hydroxycyclohexyl)amino) quinoline-3-carbonitrile]	
36	160		CC(C)(C)CNc1c(C#N)cnc2c(Cl)cc(N[C@@H](c3ccc(F)cc3)c3cn(-c4cccnc4)nn3)cc12 [Example 394, (S)-8-chloro-6-(((4-fluorophenyl)(1-(pyridin-3-yl)-1H-1,2,3-triazol-4-yl)methyl)amino)-4-(neopentylamino)quinoline-3-carbonitrile]	
